Source: patent US20130109682A1, “CYCLIC ETHER COMPOUNDS USEFUL AS KINASE INHIBITORS” (NOVARTIS AG, priority 2010, published 2013)
Read-outs that look alike come from different tables or passages of the source.

Columns and labels:
FGFR3 kinase = FGFR3 kinase (Homo sapiens, UniProt P22607); experiment: FGFR3 kinase inhibition assay (LanthaScreen TR-FRET); assay type: biochemical
Experimental: FGFR3 Kinase Inhibition Assay
LanthaScreen™ is the detection of Time-Resolved Fluorescence Resonance Energy Transfer (TR-FRET) using lanthanide chelates to measure interactions between various binding partners. The application of TR-FRET to assay kinase activity was first described by Mathis (1995). A TR-FRET assay was used to measure FGFR3 kinase inhibitory activity. The assay panel was run on a Biomek FX liquid handling workstations. To the assay plates containing […] compound or control solutions, 4.5 μL of buffer A (50 mM TRIS-HCl pH 7.4, 2 mM DTT, 0.02% Tween 20, 0.02 mM Na3VO4, H2O nanpure) including a generic concentration of ATP (2 μM f.c.) was added per well, followed by 4.5 μL of buffer B (4 uM ATP in Buffer A) including a generic concentration of polyEAY (50 nM f.c.), FGFR3 kinase, and divalent cations. Final concentration of kinase and cations were: [FGFR3 kinase]=0.20 nM, [Mg]=3 mM, [Mn]=3 mM. After 1 hour of incubation the kinase reactions were stopped by the addition of 4.5 μL of stop solution D (50 mM EDTA, 20 mM TRIS-HCl pH 7.4, 0.04% NP-40) immediately followed by 4.5 μL of buffer A (50 mM TRIS-HCl pH 7.4, 2 mM DTT, 0.02% Tween 20, 0.02 mM Na3VO4, H2O nanpure) including the Tb-labeled P-20 antibody to give a total detection volume of 18 μL. After an incubation time of 45 min in the dark, the plates were transferred into the Pherastar fluorescence reader for counting. The effect of compound on the enzymatic activity was obtained from the linear progress curves and determined from one reading (end point measurement).

[1] = system: KMS11 (human myeloma cell line); experiment: Cell proliferation assay (CellTiter-Glo), KMS11; assay type: cell-based; conditions: Homo sapiens, KMS-11
Summary of the method: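 EC50 derived from CellTiter-Glo luminescence after 3-day exposure at 37° C. Compound was diluted to 2× in medium and added to an equal volume of cells. KMS11 myeloma cells were plated on assay day at 2000/well in IMDM with 10% FBS and sodium pyruvate.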

FLT3D835Y kinase = target: T1, FLT3D835Y kinase (Homo sapiens, UniProt P36888, D835Y); experiment: FLT3D835Y kinase inhibition assay (LanthaScreen TR-FRET); assay type: biochemical; conditions: read-out: FLT3 IC50
T1 sequence (P36888 27-993 D835Y): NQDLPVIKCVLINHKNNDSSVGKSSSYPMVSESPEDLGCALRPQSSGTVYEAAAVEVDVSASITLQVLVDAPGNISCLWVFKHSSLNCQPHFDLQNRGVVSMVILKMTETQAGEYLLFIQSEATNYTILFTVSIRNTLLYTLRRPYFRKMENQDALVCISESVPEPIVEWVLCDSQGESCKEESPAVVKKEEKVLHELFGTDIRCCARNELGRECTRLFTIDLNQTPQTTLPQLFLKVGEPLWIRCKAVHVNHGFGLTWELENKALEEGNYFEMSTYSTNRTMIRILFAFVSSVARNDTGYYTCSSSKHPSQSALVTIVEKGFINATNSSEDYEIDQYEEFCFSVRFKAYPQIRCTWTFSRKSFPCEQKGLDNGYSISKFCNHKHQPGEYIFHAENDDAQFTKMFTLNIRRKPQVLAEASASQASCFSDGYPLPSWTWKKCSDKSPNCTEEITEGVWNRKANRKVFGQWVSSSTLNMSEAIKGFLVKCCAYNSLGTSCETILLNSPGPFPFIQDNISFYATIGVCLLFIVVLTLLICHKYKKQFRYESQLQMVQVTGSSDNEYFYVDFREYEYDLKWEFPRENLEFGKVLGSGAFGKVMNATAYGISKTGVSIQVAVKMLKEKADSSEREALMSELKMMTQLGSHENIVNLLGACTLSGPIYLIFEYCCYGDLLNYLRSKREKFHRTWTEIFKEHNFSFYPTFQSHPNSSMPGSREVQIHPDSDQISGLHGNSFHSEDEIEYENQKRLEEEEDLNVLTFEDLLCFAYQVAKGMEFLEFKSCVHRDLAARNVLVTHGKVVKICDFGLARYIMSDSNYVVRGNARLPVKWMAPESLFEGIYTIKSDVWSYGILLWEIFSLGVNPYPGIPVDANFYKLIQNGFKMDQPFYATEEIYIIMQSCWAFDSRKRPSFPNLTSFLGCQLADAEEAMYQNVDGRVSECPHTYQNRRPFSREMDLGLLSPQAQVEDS
Experimental: FLT3D835Y Kinase Inhibition Assay
LanthaScreen™ is the detection of Time-Resolved Fluorescence Resonance Energy Transfer (TR-FRET) using lanthanide chelates to measure interactions between various binding partners. The application of TR-FRET to assay kinase activity was first described by Mathis (1995). A TR-FRET assay was used to measure FLT3D835Y kinase inhibitory activity. The assay panel was run on a Biomek FX liquid handling workstations. To the assay plates containing […] compound or control solutions, 4.5 μL of buffer A (50 mM TRIS-HCl pH 7.4, 2 mM DTT, 0.02% Tween 20, 0.02 mM Na3VO4, H2O nanpure) including a generic concentration of ATP (2 μM f.c.) was added per well, followed by […] of buffer B (4 uM ATP in Buffer A) including a generic concentration of polyEAY (50 nM f.c.), FLT3D835Y kinase, and divalent cations. Final concentration of kinase and cations were: [FLT3D835Y kinase]=5.7 nM, [Mg]=3 mM, [Mn]=3 mM. After 1 hour of incubation the kinase reactions were stopped by the addition of 4.5 μL of stop solution D (50 mM EDTA, 20 mM TRIS-HCl pH 7.4, 0.04% NP-40) immediately followed by 4.5 μL of buffer A (50 mM TRIS-HCl pH 7.4, 2 mM DTT, 0.02% Tween 20, 0.02 mM Na3VO4, H2O nanpure) including the Tb-labeled P-20 antibody to give a total detection volume of […]. After an incubation time of 45 min in the dark, the plates were transferred into the Pherastar fluorescence reader for counting. The effect of compound on the enzymatic activity was obtained from the linear progress curves and determined from one reading (end point measurement).

[2] = KMS11 cells, cell proliferation, read-out: KMS11-Luc EC50

Chain of FGFR3 kinase (P22607 23-806): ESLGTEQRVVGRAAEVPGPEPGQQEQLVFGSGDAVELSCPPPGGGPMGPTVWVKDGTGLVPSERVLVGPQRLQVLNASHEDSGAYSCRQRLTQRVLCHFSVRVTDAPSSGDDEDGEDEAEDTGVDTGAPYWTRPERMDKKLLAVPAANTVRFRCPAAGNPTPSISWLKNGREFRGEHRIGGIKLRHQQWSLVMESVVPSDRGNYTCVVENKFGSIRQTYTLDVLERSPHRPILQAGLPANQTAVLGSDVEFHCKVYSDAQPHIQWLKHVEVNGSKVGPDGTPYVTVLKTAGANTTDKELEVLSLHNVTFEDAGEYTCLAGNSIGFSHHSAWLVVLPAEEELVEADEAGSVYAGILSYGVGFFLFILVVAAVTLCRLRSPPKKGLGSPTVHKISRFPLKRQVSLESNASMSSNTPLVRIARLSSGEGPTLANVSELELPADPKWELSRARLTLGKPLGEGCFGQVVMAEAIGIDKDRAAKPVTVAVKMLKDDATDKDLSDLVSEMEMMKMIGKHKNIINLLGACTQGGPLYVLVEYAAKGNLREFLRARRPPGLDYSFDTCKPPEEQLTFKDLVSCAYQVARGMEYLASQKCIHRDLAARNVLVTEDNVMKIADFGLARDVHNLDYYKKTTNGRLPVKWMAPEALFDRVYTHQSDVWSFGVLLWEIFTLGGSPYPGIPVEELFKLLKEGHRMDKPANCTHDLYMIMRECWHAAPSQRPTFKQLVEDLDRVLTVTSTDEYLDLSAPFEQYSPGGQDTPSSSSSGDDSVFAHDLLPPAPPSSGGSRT

SMILES	IC50 (FGFR3 kinase)	EC50 ([1]; KMS11-Luc cells)	IC50 (FLT3D835Y kinase)	EC50 [1, 2]
O=C1CC[C@H]2O[C@@H](c3ccncc3NC(=O)c3ccc(F)c(-c4c(F)cccc4F)n3)C[C@@H](O)[C@@H]2N1 [Example 196, 6-(2,6-difluorophenyl)-5-fluoro-N-(4-((2R,4R,4aS,8aR)-4-hydroxy-6-oxooctahydro-2H-pyrano[3,2-b]pyridin-2-yl)pyridin-3-yl)picolinamide]	> 10 µM	8.1 µM	> 10 µM	
N[C@@H]1C[C@H](c2ccncc2NC(=O)c2ccc(F)c(-c3c(F)cccc3F)n2)O[C@@H]2CCC[C@]12O [Example 210, N-(4-((2R,4R,4aS,7aR)-4-amino-4a-hydroxyoctahydrocyclopenta[b]pyran-2-yl)pyridin-3-yl)-6-(2,6-difluorophenyl)-5-fluoropicolinamide]	> 10 µM	0.64 µM	4.2 µM	
Nc1cnc(-c2c(F)cccc2F)nc1C(=O)Nc1cnccc1[C@H]1C[C@@H](N)[C@@]2(O)CCC[C@H]2O1 [Example 213, 5-amino-N-(4-((2R,4R,4aS,7aR)-4-amino-4a-hydroxyoctahydrocyclopenta[b]pyran-2-yl)pyridin-3-yl)-2-(2,6-difluorophenyl)pyrimidine-4-carboxamide]	> 10 µM	2.8 µM	3.5 µM	
C[C@H]1O[C@@H](c2ccncc2NC(=O)c2ccc(F)c(-c3c(F)cccc3F)n2)C[C@@H](N)[C@]1(C)O [Example 219, N-(4-((2R,4R,5S,6R)-4-amino-5-hydroxy-5,6-dimethyltetrahydro-2H-pyran-2-yl)pyridin-3-yl)-6-(2,6-difluorophenyl)-5-fluoropicolinamide]	> 10 µM		1.7 µM	0.42 µM
N[C@@H]1C[C@H](c2ccncc2NC(=O)c2ccc(F)c(-c3c(F)cccc3F)n2)O[C@@H]2CCC[C@H]12 [Example 224, N-(4-((2R,4R,4aR,7aR)-4-aminooctahydrocyclopenta[b]pyran-2-yl)pyridin-3-yl)-6-(2,6-difluorophenyl)-5-fluoropicolinamide]	> 10 µM		1.6 µM	0.65 µM
CC(C)(C)[C@@H]1O[C@H](c2ccncc2NC(=O)c2nc(-c3ccccc3)cnc2N)C[C@@H](N)[C@H]1O [Example 227, 3-amino-N-(4-((2S,4R,5R,6S)-4-amino-6-tert-butyl-5-hydroxytetrahydro-2H-pyran-2-yl)pyridin-3-yl)-6-phenylpyrazine-2-carboxamide]	2.4 µM		0.14 µM	5.31 µM
C[C@H]1O[C@@H](c2ccncc2NC(=O)c2nc(-c3ccccc3)cnc2N)C[C@@H](N)[C@]1(C)O [Example 228, 3-amino-N-(4-((2R,4R,5S,6R)-4-amino-5-hydroxy-5,6-dimethyltetrahydro-2H-pyran-2-yl)pyridin-3-yl)-6-phenylpyrazine-2-carboxamide]	0.32 µM		0.0027 µM	2.06 µM
C[C@@H]1O[C@H](c2ccncc2NC(=O)c2nc(-c3ccccc3)cnc2N)C[C@H](N)[C@@]1(C)O [Example 229, 3-amino-N-(4-((2S,4S,5R,6S)-4-amino-5-hydroxy-5,6-dimethyltetrahydro-2H-pyran-2-yl)pyridin-3-yl)-6-phenylpyrazine-2-carboxamide]	3.4 µM		0.093 µM	5.87 µM
N[C@H]1C[C@@H](c2ccncc2NC(=O)c2csc(-c3c(F)cccc3F)n2)O[C@H]2CCC[C@H]21 [Example 230, N-(4-((2S,4S,4aS,7aS)-4-aminooctahydrocyclopenta[b]pyran-2-yl)pyridin-3-yl)-2-(2,6-difluorophenyl)thiazole-4-carboxamide]	> 10 µM		0.27 µM	2.99 µM
CC(C)[C@@H]1O[C@H](c2ccncc2NC(=O)c2nc(-c3ccccc3)cnc2N)C[C@H](N)[C@H]1O [Example 240, 3-amino-N-(4-((2S,4S,5R,6S)-4-amino-5-hydroxy-6-isopropyltetrahydro-2H-pyran-2-yl)pyridin-3-yl)-6-phenylpyrazine-2-carboxamide]	> 10 µM		1.2 µM	0.38 µM
CC(C)[C@@H]1C[C@H](N)C[C@H](c2ccncc2NC(=O)c2nc(-c3ccccc3)cnc2N)O1 [Example 291, 3-amino-N-(4-((2R,4S,6S)-4-amino-6-isopropyltetrahydro-2H-pyran-2-yl)pyridin-3-yl)-6-phenylpyrazine-2-carboxamide]	1.6 µM		0.0053 µM	0.34 µM
CC(C)[C@H]1C[C@@H](N)C[C@@H](c2ccncc2NC(=O)c2nc(-c3ccccc3)cnc2N)O1 [Example 292, 3-amino-N-(4-((2S,4R,6R)-4-amino-6-isopropyltetrahydro-2H-pyran-2-yl)pyridin-3-yl)-6-phenylpyrazine-2-carboxamide]	> 10 µM		0.59 µM	0.7 µM
CCC[C@H]1O[C@@H](c2ccncc2NC(=O)c2nc(-c3ccccc3)cnc2N)C[C@@H](O)[C@@H]1O [Example 340, 3-amino-N-(4-((2R,4R,5S,6R)-4,5-dihydroxy-6-propyltetrahydro-2H-pyran-2-yl)pyridin-3-yl)-6-phenylpyrazine-2-carboxamide]	0.21 µM		0.11 µM	0.99 µM
Nc1ncc(-c2ccccc2)nc1C(=O)Nc1cnccc1[C@H]1C[C@@H](O)[C@H](O)[C@@H](CO)O1 [Example 341, 3-amino-N-(4-((2R,4R,5S,6R)-4,5-dihydroxy-6-(hydroxymethyl)tetrahydro-2H-pyran-2-yl)pyridin-3-yl)-6-phenylpyrazine-2-carboxamide]	0.48 µM		0.12 µM	10 µM
CC[C@@H]1O[C@H](c2ccncc2NC(=O)c2nc(-c3ccccc3)cnc2N)C[C@H](N)[C@H]1O [Example 342, 3-amino-N-(4-((2S,4S,5R,6S)-4-amino-6-ethyl-5-hydroxytetrahydro-2H-pyran-2-yl)pyridin-3-yl)-6-phenylpyrazine-2-carboxamide]	1.6 µM		0.012 µM	0.77 µM
